Laboratory results as given in patent US20060293231A1, “Method for enhancing bone formation” (priority 2004, published 2006).
Values joined by “and” are separate entries in the source; they are usually repeats but may differ in a detail not shown here. Equal entries are not always repeated. “Also recorded” adds a separate entry of the source.

What was measured:
Type in all cases: cell-based, human
[1] = test system: platelet-rich plasma (PRP); assay: Clotting time of platelet-rich plasma (visual)
Procedure: (§1) PRP composites were prepared by mixing PRP and TRAP with bone substitutes commonly utilized in the clinical setting. Twenty four-well plates (Corning Inc., Corning, N.Y.) were coated with 1% bovine serum albumin (Sigma, St. Louis, Mo.) and incubated for 1.5 hours at 37° C. Sterilized BioOss (25 mg, 0.5-1.0 mm), AlloGro (25 mg), and 45S5 Bioactive Glass (25 mg, […]) were uniformly dispersed within the wells. Fresh PRP (0.5 ml) aliquots were then dispensed into the pre-coated 24-well plates, and 30 μl of 10% calcium chloride solution were added to each well. Experiments were performed in triplicate (n=3) with the addition of bovine thrombin (75 units) or thrombin receptor activating peptide (TRAP, H2N-Ser-Phe-Leu-Leu Arg-Asn-NH2). TRAP was used to clot PRP for all bone substitute groups examined. • Growth Factor Release—Effects of Bone Substitute and Incubation Mode
(§2) PRP (0.5 mL) aliquots were dispensed into 24-well plates precoated with 1% bovine serum albumin (Sigma, St Louis, Mo.). Thirty microliters of 10% CaCl2 solution (American Reagent Laboratories, Shirley, N.Y.) were added to each well. Experiments were performed in triplicate (n=3) with the addition of bovine thrombin (30, 100, 300 units; GenTrac, Middleton, Wis.) or TRAP (10, 50, 100 μmol/L; Bachem Bioscience Inc, King of Prussia, Pa.). At 30 minutes, if still attached, the clots were gently released from the sides of the culture well with a pipette tip. PRP prepared with CaCl2 solution […] the addition of thrombin or TRAP served as the control group.
(§3) Clotting times were monitored by visualization. Clot retraction was determined by measuring the clot diameter at 1, 2, 4, and 24 hours, and the value was normalized against the well diameter. • Preparation of Platelet-Rich Plasma-Bone Substitute Composites with Thrombin Receptor Agonist Peptide-6
(§4) After the optimization of TRAP concentration, experiments were repeated with the addition of 25 or 50 mg of bone substitutes. To minimize nonspecific binding, the culture well (Corning Inc, Corning, N.Y.) was precoated with 1% bovine serum albumin (Sigma) and incubated for 1.5 hours at 37° C. Sterilized BioOss (25 mg, 0.5 to 1.0 mm; Osteohealth, Shirley, N.Y.), AlloGro (25 mg; Ceramed, Lakewood, Colo.), and 45S5 Bioactive Glass (25 mg, 300 μm; Mo-Sci, Rolla, Minn.) were uniformly dispersed within the wells. Fresh PRP (0.5 mL) aliquots were then dispensed into the precoated 24-well plates, and 30 μl of 10% CaCl2 solution (American Reagent Laboratories, Shirley, N.Y.) was added to each well. Experiments were performed in triplicate (n=3) with the addition of TRAP (H2N-Ser-Phe-Leu-Leu-Arg-Asn-NH2) to the wells containing bone substitutes. • Growth Factor Release from Platelet-Rich Plasma Prepared with Thrombin or Thrombin Receptor Agonist Peptide-6

[2] = test system: platelet-rich plasma (PRP); assay: PRP clot retraction (clot diameter normalized against well diameter; released fluid volume)
Procedure: as §2, §3, §4
(§5) The temporal release of growth factors was examined as a function of time and mode of PRP preparation. Specifically, the PRP clotted with thrombin or TRAP was allowed to gel, and all samples were incubated at 37° C. in a humidified environment for up to 14 days. The volume of fluid released from the clot was measured. Growth factor release was assessed at 1, 3, 7, and 14 days. All collected supernatant samples were stored at −70° C. before analysis. • Quantification of Platelet-Derived Growth Factor and Transforming Growth Factor-β

PDGF-AB = PDGF-AB release from PRP clots and PRP composites (sandwich enzyme immunoassay of supernatant); details: for effect of media exchange on PDGF release: Group 1 (dynamic mode) versus Group 2 (static mode, less frequent exchange)
Procedure: as §1
(§6) The temporal release of growth factors was examined as a function of bone substitute and mode of sample incubation. Specifically, the PRP composites were allowed to clot, and all samples were incubated at 37° C. and humidified environment for up to 14 days. The media were exchanged for all groups at 1 day after incubation. The volume of fluid released from the clot was measured and equal volume of fresh Dulbecco's Modification of Eagle's Medium (DMEM, Mediatech, Herdon, Va.) without serum was added back to each well. Subsequently, in the dynamic incubation mode (Group 1), the fluid released from the clot was collected and equal volume of fresh DMEM was added back into the well at 3, 7, and 14 days. In the static mode (Group 2), the media was exchanged only at the designated time points (7 and 14 days). All collected supernatant samples were stored at −70° C. prior to analyses. • Quantification of PDGF and TGFβ
Supernatants collected from all time points for both Group 1 and 2 were assayed for PDGF-AB and TGFβ content using diagnostic kits from R & D Systems (Minneapolis, Minn.). Both assays are based on a sandwich enzyme immunoassay technique. The PDGF-AB assay uses a pre-coated microtiter plate with a monoclonal antibody to PDGF-AA. Preparation and dilution of samples and standards were performed as directed by the manufacturer. Both the standards and the samples were incubated for 3 hours at room temperature. The plate was washed with buffer and a conjugated antibody to PDGF-BB was added to the wells and incubated at room temperature for an additional 1 hour. The plate was then washed and substrate added for 20 minutes at room temperature. The reaction was stopped and absorbance was determined at 450 nm using a spectrophotometer (SpectraFluor Plus, Tecan, Maennedorf, Switzerland). A standard curve was generated and the PDGF-AB levels (pg/ml) of each sample were determined. The total amount of growth factor was calculated based on the amount of supernatant obtained after clot retraction.
as §5
Supernatants were assayed for PDGF-AB and TGFβ content using diagnostic kits from R & D Systems (Minneapolis, Minn.). Both assays are based on a sandwich enzyme immunoassay technique. The PDGF-AB assay used a precoated microtiter plate with a monoclonal antibody to PDGF-AA. Preparation and dilution of samples and standards were performed as directed by the manufacturer. Both the standards and the samples were incubated for 3 hours at room temperature. […]

TGFβ = TGFβ release from PRP clots and PRP composites (enzyme immunoassay of supernatant); details: for TGFβ release/retention post clotting, comparison between groups: day 1 post clotting, p<0.05
Procedure: as §1, §6
TGFβ was assayed with a similar enzyme immunoassay technique. A dilution series of TGFβ standards was prepared in 100 μl volumes in 96-well microtiter plates coated with TGFβ receptor Type II. The sample supernatants (0.025 ml) obtained from PRP composites were diluted with 0.075 ml of phosphate buffer saline solution. The samples were then activated with 0.1 ml of 1.0 N HCl incubated at room temperature for 10 minutes, neutralized by an addition of 0.1 ml of 1.2 N NaOH/0.5 M HEPES (N-[2-hydroxyethyl] piperazine-N-[2-ethanesulfonic acid]). The supernatant fractions were then incubated for 3 hours at room temperature. The wells were then washed and enzyme-conjugated polyclonal antibody to TGFβ1 was added and allowed to incubate for 1.5 hours at room temperature. The reaction was stopped and absorbance was measured at 450 nm using a spectrophotometer (SpectraFluor Plus, Tecan, Maennedorf, Switzerland). A standard curve was generated and the TGFβ levels (pg/ml) of each sample were determined. The total amount of growth factors was calculated based on the amount of supernatant obtained after clot retraction. • Statistical Analyses
as §5
TGFβ was assayed with a similar enzyme immunoassay technique. A dilution series of TGFβ standards were prepared in 96-well microtiter plates coated with TGFβ receptor Type II. The sample supernatants (0.025 mL) obtained from PRP composites were diluted with 0.075 mL of phosphate-buffered saline solution. […]

H2N-Ser-Phe-Leu-Leu-Arg-Asn-NH2 [TRAP, reference compound]
time for the clot to completely solidify ([1]; Example 1, TRAP at 100 μm): 14.5 min | time for the clot to completely solidify ([1]; Example 2, TRAP at 100 μmol/L): 9.25 min | decrease in the clot diameter ([2]; TRAP 50 μmol/L): 15% | decrease in the clot diameter ([2]; TRAP 100 μmol/L): 15% | PDGF-AB released (PDGF-AB; Example 1, at 7 days): 11,624 pg | PDGF-AB released (PDGF-AB; Example 1, day 1): 20,642 pg | PDGF-AB released (PDGF-AB; Example 2, at 7 days, mean±SD): 2,797.6±612.0 pg | PDGF-AB released (PDGF-AB; Example 2, day 1, mean±SD): 20,642±1,170.0 pg | effect of media exchange on PDGF release (PDGF-AB): no statistically significant effects; also recorded: No significant difference | TGFβ retained compared to the thrombin group (TGFβ; Example 1, time not stated (day 1 context)): 39.2% | TGFβ retained, more than the thrombin group (TGFβ; Example 2, at 72 hours): 39.2% | TGFβ release/retention post clotting, comparison between groups (TGFβ): significantly lower levels

thrombin: bovine thrombin (GenTrac), serine protease used as standard PRP clotting agent
time to complete polymerization of PRP ([1]; Example 1, 30 units of thrombin added to 0.5 ml PRP mixture): 6 min | time to clot formation ([1]; Example 1, 100 units thrombin, 0.5 ml PRP): 1.25 min | time to clot formation ([1]; Example 1, 300 units thrombin, 0.5 ml PRP): 1.25 min | time to complete polymerization of PRP ([1]; Example 2, 30 units of thrombin added to 0.5 mL PRP mixture): 6 min | time to clot formation ([1]; Example 2, 100 units thrombin): 3.25 min | clot retraction ([2]; 30 units of thrombin): 34% | shrinkage of the clot (clot retraction) ([2]; 100 units of thrombin, all time points): 43% | volume of supernatant released from the clot ([2]; all time points, comparison between groups): largest release volume | clot retraction ([2]; at 24 hours, TRAP with 25 mg bone substitute, thrombin 100 units): 56%±3% and 56% | PDGF-AB released (PDGF-AB; Example 1, at 7 days): 5,068 pg | PDGF-AB released (PDGF-AB; Example 1, day 1): 32,526 pg | PDGF-AB released (PDGF-AB; Example 2, at 7 days, mean±SD): 1,738.2 ±443.0 pg | PDGF-AB released (PDGF-AB; Example 2, day 1, mean±SD): 32,526±6,752.4 pg | effect of media exchange on PDGF release (PDGF-AB): No significant difference | effect of media exchange on PDGF release (PDGF-AB; listed as Thrombin): no statistically significant effects | PDGF-AB release, more than the TRAP group (PDGF-AB; day 1): approximately 36% | TGFβ release from the clot after 14 days (TGFβ; after 14 days): all of the TGFβ present in the original PRP thrombin clots had been released; also recorded: all the TGFβ in thrombin clots was released | TGFβ release/retention post clotting, comparison between groups (TGFβ): highest amount | TGFβ already released from the clot (TGFβ; within 24 hours, of total TGFβ in original PRP): over 81.4%
